Reference: patent publication US11130752B2, “Aminopyrimidine compound” (Cardurion Pharmaceuticals, LLC, priority 2018, dated 2021)

Experiments:
human CaMKIIδ = molecular target: T1, human CaMKIIδ (Homo sapiens, UniProt Q13557); assay: In vitro CaMKII inhibitory activity (binding assay, TR-FRET); conditions: activity ranks
T1 construct: Full-length, glutathione-S-transferase(GST)-tagged, human CaMKIIδ was purchased from Carna Biosciences; purchased Carna Biosciences (CaMKIIδ); Wako Pure Chemical Industries (calmodulin) 02-111
Procedure, shortened: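 TR-FRET displacement of a BODIPY probe (300 nM) from 0.5 nM full-length GST-tagged human CaMKIIδ, with Tb-anti-GST, calmodulin and 1 mM CaCl2 in pH 7.6 HEPES/MgCl2 buffer. Read after 1 hr at room temperature over an eight-point 4-fold series. IC50 by logistic fit, with 3 μM parent compound as the 100% control.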

[1] = test system: phospholamban (Thr17, PLN) phosphorylation, cardiac CaMKII; assay: In vivo cardiac CaMKII inhibition (oral administration), P-PLN Western blot; conditions: male CD (SD) IGS rat left ventricle, 30 mg/kg p.o., 4 hr after administration, in comparison with vehicle-treated group, read-out: Reduction rate of P-PLN
Method: Evaluation of In Vivo Cardiac CaMKII Inhibition (Oral Administration)
To evaluate potency of test compounds to inhibit cardiac CaMKII kinase in vivo, phosphorylation levels of CaMKII-specific sites of phospholamban (Thr17, PLN) were measured in the heart of rats administered orally with test compounds.
Test compounds were suspended in 0.5% [w/v]methylcellulose/water solution and administered (30 mg/kg) to male CD (SD) IGS rat (6-8 weeks old, n=4) by the p.o. route (5 mL/kg). At 4 hours after the administration, rats were sacrificed and the hearts were harvested. After washing the isolated hearts with ice-cold saline, connective tissues were removed on ice, and the isolated left ventricle were frozen into liquid nitrogen gas and stored at −80° C.
(§1) The left ventricle samples were homogenized in RIPA-buffer containing phosphatase inhibitors and protease inhibitors. Samples were analyzed by Western blotting using anti-P-PLN (Thr17, Santa Cruz Biotechnology, sc-17024-R) antibody. The band intensities were quantified using an imaging system and were normalized relative to the vehicle-treated group.

HepG2 cells = assay: In vitro cytotoxicity (cellular ATP content, CellTiter-Glo); assay type: cell-based; conditions: 33 μM, 72 hr incubation
Method: Evaluation of In Vitro Cytotoxicity
To evaluate in vitro cytotoxicity of test compounds, % ATP reduction was determined in the presence of 33 μM of each test compound after 72 hr incubation.
HepG2 cells were seeded in DMEM (Invitrogen) containing 10% FBS (Corning)+glucose (4.5 g/L) for 24 hr to allow cell adhesion. For compound treatments, compounds were diluted in DMSO and the media, followed by added to the wells (24 hr after the cell seeding) to obtain the desired final concentration (33 μM, n=2). The final DMSO concentration was 1%. After 72 hr, cellular ATP contents were measured using CellTiter-Glo Luminescent Cell Viability Assay (Promega). The % ATP reduction was determined by comparing the ATP contents in the absence and the presence of test compounds.

[2] = test system: phospholamban (Thr17, PLN) phosphorylation, cardiac CaMKII; assay: In vivo cardiac CaMKII inhibition (intravenous administration), P-PLN Western blot; conditions: male CD (SD) IGS rat left ventricle, 1 mg/kg bolus i.v., 0.25 hr after administration, in comparison with vehicle-treated group
Method: Evaluation of In Vivo Cardiac CaMKII Inhibition (Intravenous Administration)
To evaluate potency of test compounds to inhibit cardiac CaMKII kinase in vivo, phosphorylation levels of CaMKII-specific sites of phospholamban (Thr17, PLN) were measured in the heart of rats administered intravenously with test compounds.
Test compounds were dissolved in N,N-dimethylacetamide and 1,3-butanediol (1:1) solution and were injected (1 mg/kg) to male CD (SD) IGS rats (8 weeks old, n=4) by bolus intravenous injection via the lateral tail vein or the femoral vein (0.5-1 mL/kg). At 0.25 hours after the injection, rats were sacrificed and the hearts were harvested. After washing the isolated hearts with ice-cold saline, connective tissues were removed on ice, and the isolated left ventricle were frozen into liquid nitrogen gas and stored at −80° C.
as §1

[3] = Table 1, GST-tagged human CaMKIIδ
[4] = Table 4, GST-tagged human CaMKIIδ

SMILES | IC50 (human CaMKIIδ; [3]) [nM] | inhibition in vivo at 30 mg/kg [1] [%] | % ATP reduction (HepG2 cells) [%] | melting point [°C] | Reduction rate of P-PLN [2] [%] | IC50 (human CaMKIIδ; [4]) [nM]
COCCCOc1nn([C@H]2CC[C@H](N3CCOCC3)CC2)cc1Nc1ncc(-c2ccc(C#N)c(O[C@@H](C)Cn3cnnn3)c2)cn1 [Example 26, 2-(((S)-1-(1H-tetrazol-1-yl)propan-2-yl)oxy)-4-(2-((3-(3-methoxypropoxy)-1-((1r,4r)-4-morpholinocyclohexyl)-1H-pyrazol-4-yl)amino)pyrimidin-5-yl)benzonitrile] | < 10 | > 30 | 9 | 153 |  | 
COCCCOc1nn([C@H]2CC[C@H](N3C[C@@H](C)O[C@@H](C)C3)CC2)cc1Nc1ncc(-c2ccc(C#N)c(O[C@@H](C)Cn3cnnn3)c2)cn1 [Example 143, 2-(((S)-1-(1H-tetrazol-1-yl)propan-2-yl)oxy)-4-(2-((1-((1r,4r)-4-((2S,6R)-2,6-dimethylmorpholino)cyclohexyl)-3-(3-methoxypropoxy)-1H-pyrazol-4-yl)amino)pyrimidin-5-yl)benzonitrile] | < 10 | > 30 | 12 | 113 | >30 | 
C[C@@H]1CN([C@H]2CC[C@H](n3cc(Nc4ncc(-c5ccc(C#N)c(O[C@@H](C)Cn6cnnn6)c5)cn4)c(OCCC(C)(C)O)n3)CC2)C[C@H](C)O1 [Example 485, 2-(((S)-1-(1H-tetrazol-1-yl)propan-2-yl)oxy)-4-(2-((1-((1r,4r)-4-((2S,6R)-2,6-dimethylmorpholino)cyclohexyl)-3-(3-hydroxy-3-methylbutoxy)-1H-pyrazol-4-yl)amino)pyrimidin-5-yl)benzonitrile] |  |  | 7 |  | >30 | < 10
COCCOCCCOc1nn([C@H]2CC[C@H](N3C[C@@H](C)O[C@@H](C)C3)CC2)cc1Nc1ncc(-c2ccc(C#N)c(O[C@@H](C)Cn3cnnn3)c2)cn1 [Example 488, 2-(((S)-1-(1H-tetrazol-1-yl)propan-2-yl)oxy)-4-(2-((1-((1r,4r)-4-((2S,6R)-2,6-dimethylmorpholino)cyclohexyl)-3-(3-(2-methoxyethoxy)propoxy)-1H-pyrazol-4-yl)amino)pyrimidin-5-yl)benzonitrile] |  | > 30 | 3 |  |  | < 10
